This is an account of results in patent US4622342A, “Secondary amines” (priority 1981, dated 1986).

Structures can show the parent of a compound that is named as a salt. Where two headings read alike, the source gives them in different places.

One assay relates to blood glucose. Description: Anti-hyperglycaemic activity (blood glucose after subcutaneous glucose in fasted mice). The assay is classed as in vivo, Female CFLP mice. To be noted: Mus musculus, read-out: Reduction in area under blood glucose curve. On the procedure: Female CFLP mice, each weighing approximately 25 g were fasted for 24 hours prior to the study. The compounds under study were administered orally as an aqueous solution to each of 6 mice. 6 mice were given water as a control. 30 minutes later a blood sample (20 μl ) was obtained from the tail for the analysis of blood glucose. Immediately after taking this blood sample, glucose (1 g/kg body weight) was administered subcutaneously to each mouse. Blood samples were then obtained from each mouse at 30 minute intervals for 120 minutes.
Compounds that produced a significant (P<0.05) reduction of blood glucose, compared with control mice given water, at any time interval, were considered active. The area under the blood glucose curve over the 2 hour period after the adminstration of the glucose was calculated for each compound and compared with the value for control animals.

A further assay deals with platelet aggregation. Description: Platelet aggregation inhibition activity (collagen-induced fall in platelet count, oral dosing). In kind it is in vivo, Male CFLP mice. Conditions: collagen 400 μg/kg i.v. two hours later. On the procedure:
Male CFLP mice (ca 20 g, n=8) were dosed orally with compound or vehicle (controls) after an overnight fast. Two hours later each mouse received an intravenous dose of collagen (400 μg/kg, pH 6-6.6). Exactly 30 seconds after injection of collagen, each mouse was placed in a chamber of CO2 until respiration ceased. […] Each blood platelet count was expressed as a percent of that obtained in a tail blood sample taken immediately before injection of collagen.

The next assay relates to Rat hearts. Description: Cardiac activity, rat hearts perfused by the Langendorff procedure. On the procedure:
Rat hearts were perfused by the Langendorff procedure as follows:
Hearts were dissected free within 30 seconds of death and reverse perfused via the aorta and coronary vessels with Krebs-Ringer bicarbonate solution (pH 7.4, 37° C.) gassed with 95% oxygen:5% carbon dioxide at a flow rate between 8-12 cm^3 /minute. Responses were observed after injection of drug dissolved in isotonic saline into the perfusion media.
Results are expressed as a percentage of the maximum response due to salbutamol.

The subject of a further assay is rat ear inflammation. Briefly: Topical anti-inflammatory activity (croton oil rat ear inflammation). In kind it is in vivo. To be noted: 1.0 mg/rat ear; 6 hours; activity = significant (5% level) reduction in ear weight vs non-drug treated control. On the procedure: The method used is based on that described by G. Tonelli et al (Endocrinology, 77, 625-634, 1965). An inflammation is induced in the rat ear by the application of 50 μl of a 1% solution of croton oil in tetrahydrofuran, test compounds being dissolved in the irritant vehicle. After 6 hours the inflammation is assessed by killing the animals and weighing the ears. Topical anti-inflammatory activity of a compound is generally considered to be shown when a significant (5% level) reduction in ear weight is seem compared to non-drug treated control.

Where [1] appears, read: dose 1 μ moles/kg po, 2 hour period after glucose 1 g/kg s.c.
[2] abbreviates: 10 μg added to perfusate (salbutamol dose not given), read-out: Heart Rate (percentage of the maximum response due to salbutamol).
Setting [3] is: 10 μg added to perfusate (salbutamol dose not given), read-out: Heart Tension (percentage of the maximum response due to salbutamol).
The mark [4] stands for this setting: read-out: Heart Rate (percentage of the maximum response due to salbutamol).
Where [5] appears, read: read-out: Heart Tension (percentage of the maximum response due to salbutamol).

Regarding `COc1ccc(C[C@@H](C)NC[C@H](O)c2cccc(Cl)c2)cc1F` (relative stereo) [Example 4, N-[2-(3-Fluoro-4-methoxyphenyl)-1-methylethyl]-2-hydroxy-2-(3-chlorophenyl)ethanamine hydrobromide-(RR,SS) diastereoisomer], the inhibition in vivo at 1 µmol/kg with blood glucose (po, 2 h) came out at 42%. With `COc1ccc(C[C@@H](C)NC[C@H](O)c2cccc(Cl)c2)cc1` (relative stereo) [Example 6, N-[2-(4-Methoxyphenyl)-1-methylethyl]-2-hydroxy-2-(3-chlorophenyl)ethanamine hydrobromide-(RR,SS) diastereoisomer], in the assay on blood glucose (po, 2 h), the inhibition in vivo at 0.5 µmol/kg was 30% and the inhibition in vivo at 1 µmol/kg turned out to be 40%. Regarding `COc1ccc(C[C@H](C)NC[C@H](O)c2cccc(Cl)c2)cc1F` (relative stereo) [Example 15, N-[2-(3-Fluoro-4-methoxyphenyl)-1-methylethyl]-2-hydroxy-2-(3-chlorophenyl)ethanamine-(RS,SR) diastereoisomer], the inhibition in vivo at 1 µmol/kg in the assay on blood glucose (po, 2 h) is 19%. For `COc1ccc(C[C@H](C)NC[C@H](O)c2cccc(Cl)c2)cc1OC` (relative stereo) [Example 20, N-[2-(3,4-Dimethoxyphenyl)-1-methylethyl]-2-hydroxy-2-(3-chlorophenyl)ethanamine-(RS,SR) diastereoisomer], the inhibition in vivo at 2.5 µmol/kg in the assay with blood glucose (po, 2 h) was determined as 34%. Take `CC(=O)Oc1ccccc1C(=O)O` [Aspirin, reference compound]: in the assay on platelet aggregation (dose 600 μmol/kg po), the “% INHIBITION OF RESPONSE TO COLLAGEN” value was determined as 33%. As to `CC(Cc1ccc(OCc2ccccc2)cc1)NCC(O)c1cccc(Cl)c1` (stereo not shown) [Example 1, N-[2-(4-Benzyloxyphenyl)-1-methylethyl]-2-hydroxy-2-(3-chlorophenyl)ethanamine], the inhibition in vivo at 1 µmol/kg in the assay on blood glucose (setting [1]) stood at 36%. Moreover, the Emax with Rat hearts (setting [2]) stood at 0%; in the assay on Rat hearts (setting [3]) it was 7%.

As for `CC(Cc1ccc(O)cc1)NCC(O)c1cccc(Cl)c1` (stereo not shown) [Example 2, N-[2-(4-Hydroxyphenyl)-1-methylethyl]-2-hydroxy-2-(3-chlorophenyl)ethanamine], in the assay with platelet aggregation (dose 5 μmol/kg po), the “% INHIBITION OF RESPONSE TO COLLAGEN” value turned out to be 40%. In addition, the inhibition in vivo at 1 µmol/kg with blood glucose (po, 2 h) worked out at 47%. The Emax with Rat hearts (setting [4]) worked out at 14%; with Rat hearts (setting [5]), 26%.

On to `COc1ccc(CC(C)NCC(O)c2cccc(Cl)c2)cc1F` (stereo not shown) [Example 3, N-[2-(3-Fluoro-4-methoxyphenyl)-1-methylethyl]-2-hydroxy-2-(3-chlorophenyl)ethanamine], for which the inhibition in vivo at 1 µmol/kg in the assay with blood glucose (po, 2 h) came out at 46%. In addition, the Emax is 0% in the assay on Rat hearts (setting [4]) and 36% with Rat hearts (setting [5]).

Consider `COc1ccc(CC(C)NCC(O)c2cccc(Cl)c2)cc1` (stereo not shown) [Example 5, N-[2-(4-Methoxyphenyl)-1-methylethyl]-2-hydroxy-2-(3-chlorophenyl)ethanamine], for which the “Topical anti-inflammatory ACTIVITY” value in the assay with rat ear inflammation is given as “Active”. Also, the inhibition in vivo at 1 µmol/kg with blood glucose (po, 2 h) was 49%.

For the molecule `COc1ccc(CC(C)NCC(O)c2cccc(F)c2)cc1` (stereo not shown) [Example 7, N-[2-(4-Methoxyphenyl)-1-methylethyl]-2-hydroxy-2-(3-fluorophenyl)ethanamine], in the assay with blood glucose (po, 2 h), the inhibition in vivo at 5 µmol/kg stood at 32%.

In the case of `COc1ccc(CC(C)NCC(O)c2cccc(Br)c2)cc1` (stereo not shown) [Example 8, N-[2-(4-Methoxyphenyl)-1-methylethyl]-2-hydroxy-2-(3-bromophenyl)ethanamine], the inhibition in vivo at 1 µmol/kg with blood glucose (po, 2 h) turned out to be 30%. For `COc1ccc(CC(C)NCC(O)c2cccc(Cl)c2F)cc1` (stereo not shown) [Example 9, N-[2-(4-Methoxyphenyl)-1-methylethyl]-2-hydroxy-2-(3-chloro-2-fluorophenyl)ethanamine], the inhibition in vivo at 1 µmol/kg in the assay with blood glucose (po, 2 h) was determined as 40%. `CC(CCc1ccc(O)cc1)NCC(O)c1cccc(Cl)c1` (stereo not shown) [Example 10, N-[3-(4-Hydroxyphenyl)-1-methylpropyl]-2-hydroxy-2-(3-chlorophenyl)ethanamine]: the “% INHIBITION OF RESPONSE TO COLLAGEN” value with platelet aggregation (dose 5 μmol/kg po) came to 40%. In addition, the inhibition in vivo at 1 µmol/kg in the assay on blood glucose (setting [1]) was found to be 47%.

Consider `CC(Cc1ccc(OC(C)C)cc1)NCC(O)c1cccc(Cl)c1` (stereo not shown) [Example 11, N-[2-(4-Isopropoxyphenyl)-1-methylethyl]-2-hydroxy-2-(3-chlorophenyl)ethanamine], for which the inhibition in vivo at 0.2 µmol/kg in the assay with blood glucose (po, 2 h) is 12.5%.

Turning to `CCCCCOc1ccc(CC(C)NCC(O)c2cccc(Cl)c2)cc1` (stereo not shown) [Example 12, N-[2-(4-^n Pentyloxyphenyl)-1-methylethyl]-2-hydroxy-2-(3-chlorophenyl)ethanamine], the inhibition in vivo at 0.5 µmol/kg in the assay on blood glucose (po, 2 h) was 36%. Take `CCCCCCCCCCOc1ccc(CC(C)NCC(O)c2cccc(Cl)c2)cc1` (stereo not shown) [Example 13, N-[2-(4-^n Decyloxyphenyl)-1-methylethyl]-2-hydroxy-2-(3-chlorophenyl)ethanamine]: the inhibition in vivo at 1 µmol/kg in the assay with blood glucose (setting [1]) is 22%. In the case of `COc1ccc(CCNCC(O)c2cccc(Cl)c2)cc1` (stereo not shown) [Example 14, N-[2-(4-Methoxyphenyl)ethyl]-2-hydroxy-2-(3-chlorophenyl)ethanamine], the inhibition in vivo at 1 µmol/kg with blood glucose (setting [1]) came out at 39%. Consider `COc1ccc(CCC(C)(C)NCC(O)c2cccc(Cl)c2)cc1` (stereo not shown) [Example 16, N-[3-(4-Methoxyphenyl)-1,1-dimethylpropyl]-2-hydroxy-2-(3-chlorophenyl)ethanamine], for which the inhibition in vivo at 50 µmol/kg in the assay on blood glucose (dose 50 μ moles/kg po, 2 hour period after glucose 1 g/kg s.c.) stood at 21%.

In the case of `COc1ccc(C[C@@H](C)NCC(O)c2cccc(Cl)c2)cc1F` (stereo partly drawn) [Example 17, N-[2-(3-Fluoro-4-methoxyphenyl)-1-(R)-1-methylethyl]-2-(R,S)-2-hydroxy-2-(3-chlorophenyl)ethanamine hydrobromide], the inhibition in vivo at 2.5 µmol/kg in the assay on blood glucose (po, 2 h) came to 38%. Same read-out and setting: under `COc1ccc(CC(C)NCC(O)c2cccc(Cl)c2)cc1C` (stereo not shown) [Example 18, N-[2-(4-methoxy-3-methylphenyl)-1-methylethyl]-2-hydroxy-2-(3-chlorophenyl)ethanamine] stands 58%. On the same count and under the same terms, to `COc1ccc(CC(C)NCC(O)c2cccc(Cl)c2)cc1OC` (stereo not shown) [Example 19, N-[2-(3,4-Dimethoxyphenyl)-1-methylethyl]-2-hydroxy-2-(3-chlorophenyl)ethanamine] belongs 21%; to `CC(Cc1ccc(OC2CCCCC2)cc1)NCC(O)c1cccc(Cl)c1` (stereo not shown) [Example 21, N-[2-(4-Cyclohexyloxyphenyl)-1-methylethyl]-2-hydroxy-2-[3-chlorophenyl)ethanamine hydrochloride], 53%. Consider `CC(Cc1ccc(OCCc2ccccc2)cc1)NCC(O)c1cccc(Cl)c1` (stereo not shown) [Example 22, N-[2-(4-{2-phenylethoxy}phenyl)-1-methylethyl]-2-hydroxy-2-(3-chlorophenyl)ethanamine], for which the inhibition in vivo at 2.5 µmol/kg in the assay on blood glucose (dose 2.5 μ moles/kg po, 2 hour period after glucose 1 g/kg s.c.) is 13%. For the molecule `COc1cccc(CC(C)NCC(O)c2cccc(Cl)c2)c1` (stereo not shown) [Example 23, N-[2-(3-Methoxyphenyl)-1-methylethyl]-2-hydroxy-2-(3-chlorophenyl)ethanamine hydrochloride], the inhibition in vivo at 2.5 µmol/kg with blood glucose (po, 2 h) is 22%. Turning to `COc1ccccc1CC(C)NCC(O)c1cccc(Cl)c1` (stereo not shown) [Example 24, N-[2-(2-Methoxyphenyl)-1-methylethyl]-2-hydroxy-2-(3-chlorophenyl)ethanamine], the inhibition in vivo at 5 µmol/kg in the assay with blood glucose (po, 2 h) worked out at 27%. For `CC(C)(C)NCC(O)c1ccc(O)c(CO)c1` (stereo not shown) [Salbutamol, salbutamol, reference compound], the Emax in the assay with Rat hearts (setting [2]) and with Rat hearts (setting [3]) was 100% in each case.
